{"source": "paper PMC12033364", "about": "“Emergence of transferable daptomycin resistance in Gram-positive bacteria” (npj Antimicrobials and Resistance, 2025)", "key": {"[1]": {"system": "Enterococcus faecalis CVM N59689F", "conditions": "E. faecalis CVM N59689F, drc-carrying isolate from market swine; cited from earlier work", "description": "Table 1 Detection of the drc locus (drcRS/drcAB) in staphylococci and enterococci | column: DAP MIC (µg/mL) || Another bottleneck in clinical AMR development is that AMR genes from environmental microorganisms must gain access to pathogenic species. This requires donors and recipients to come into close physical contact, which is often challenging as pathogenic and environmental species rarely share the same ecological niche. In this respect, M. sciuri may play a crucial role in drc acquisition and spread. Due to its dual lifestyle as a soil bacterium and animal commensal, M. sciuri comes into contact with both the soil resistome and commensal bacteria associated with warm-blooded hosts, making M. sciu ..."}, "S. aureus USA300 LAC*": {"system": "S. aureus USA300 LAC*", "assay": "DAP MIC, micro-broth dilution, plasmid-carrying MRSA strains", "format": "cell-based, Staphylococcus aureus", "conditions": "MH + 50 µg/mL CaCl2, 18 h 37 °C, three biological replicates", "method": "(§1) Bacteria were grown in Muller-Hinton broth (MH) (Carl Roth GmbH + Co. KG, Karlsruhe, Germany) and over-night cultures supplemented with antibiotics when required. […] For transcription profiling experiments, bacteria were exposed to 128 µg/mL DAP for 30 min. All strains, except bacilli (30 °C), were incubated at 37 °C.\n(§2) Recombinant plasmids (Table S1) were generated by in vitro E. coli cloning method, employing shuttle vector pCG248 as backbone and E. coli DC10B as host. After recovery from E. coli, recombinant plasmids were transformed into S. aureus or B. subtilis via electroporation.\n(§3) The cultures were adjusted to 5 × 10^5 CFU/mL and transferred to a 96-well flat bottom microtiter plate (Greiner Bio-One GmbH, Frickenhausen, Germany). 100 ng/mL anhydrotetracycline (ATc) (Carl Roth GmbH + Co. KG, Karlsruhe, Germany) was added if required; ATc-containing plates were stored in the dark. Plates were incubated for 18 h at 37 °C (24 h at 30 °C for bacilli) under static conditions. Afterwards, the OD595 was measured to determine the MIC according to EUCAST guidelines."}, "[2]": {"system": "drcA and drcB (TS92_00079, TS92_00080) in M. sciuri TS92", "assay": "Transcription profiling (RNA-Seq) upon DAP exposure", "format": "cell-based, Mammaliicoccus sciuri", "conditions": "M. sciuri TS92 exposed to 128 µg/mL DAP for 30 min, three biological replicates, DESeq2", "method": "An overnight culture of M. sciuri TS92 was diluted in fresh MH to an optical density at 600 nm (OD600) of 0.05 and grown to OD600 0.5. The culture was split into 10 mL each aliquots and incubated in the absence and presence of 128 µg/mL DAP for 30 min. Subsequently, total RNA extraction was performed as described previously.\nRNA was isolated from three biological replicates. RNA quality was checked using a 2100 Bioanalyzer with the RNA 6000 Nano Kit (Agilent Technologies, Santa Clara, USA). cDNA libraries suitable for sequencing were prepared from 1000 ng of total RNA after DNase I treatment (Thermo Fisher, Darmstadt, Germany). […] The number of PCR cycles was determined at 14 by qPCR and the elongation time was set to 15 s. Libraries were quantified by Qubit^TM dsDNA HS Assay Kit and Qubit^TM 3.0 Fluorometer (ThermoFisher), and quality was checked using 2100 Bioanalyzer with the High Sensitivity DNA Kit (Agilent Technologies) before pooling. Sequencing of pooled libraries, spiked with 5% PhiX control library, was performed at ~11–15 million reads per sample in single-end mode with 75 nucleotide read length on the NextSeq 500 platform (Illumina, San Diego, CA, USA). […] Afterwards, the pipeline READemption v0.4.5[59] was applied to align all reads longer than 11 nt (-l 12) to our de novo assembled M. sciuri TS92 genome using segemehl v0.2.0[60] with an accuracy cut-off of 95% (-a 95). […]"}, "S. aureus RN4220": {"system": "S. aureus RN4220", "assay": "DAP MIC, micro-broth dilution, plasmid-carrying strains", "format": "cell-based, Staphylococcus aureus", "conditions": "MH + 50 µg/mL CaCl2, 18 h 37 °C, three biological replicates", "method": "as §1, §2, §3"}, "B. subtilis 168": {"system": "B. subtilis 168", "assay": "DAP MIC, micro-broth dilution, plasmid-carrying strains", "format": "cell-based, Bacillus subtilis", "method": "as §1, §2, §3"}}, "data": [{"smiles": "CCCCCCCCCC(=O)N[C@@H](Cc1c[nH]c2ccccc12)C(=O)N[C@H](CC(N)=O)C(=O)N[C@@H](CC(=O)O)C(=O)N[C@@H]1C(=O)NCC(=O)N[C@@H](CCCN)C(=O)N[C@@H](CC(=O)O)C(=O)N[C@H](C)C(=O)N[C@@H](CC(=O)O)C(=O)NCC(=O)N[C@H](CO)C(=O)N[C@@H]([C@H](C)CC(=O)O)C(=O)N[C@@H](CC(=O)c2ccccc2N)C(=O)O[C@@H]1C", "note": "[DAP, Daptomycin]", "values": [{"measurement": "DAP MIC", "setting": "[1]", "result": ">16", "unit": "µg/mL"}, {"measurement": "DAP MIC", "setting": "S. aureus USA300 LAC*; S. aureus USA300 LAC*_Pxyl/tet-drcAB + ATc (induced)", "result": 32, "unit": "µg/mL"}, {"measurement": "DAP MIC", "setting": "S. aureus USA300 LAC*; S. aureus USA300 LAC*_drcRS/drcAB (entire drc locus on plasmid)", "result": 128, "unit": "µg/mL"}, {"measurement": "DAP MIC", "setting": "S. aureus USA300 LAC*; S. aureus USA300 LAC*_empty vector control", "result": 1, "unit": "µg/mL"}, {"measurement": "up-regulation of drcA and drcB transcription upon DAP exposure versus untreated control", "setting": "[2]", "result": 128, "unit": "fold change"}, {"measurement": "DAP MIC", "setting": "S. aureus RN4220; S. aureus RN4220_Pxyl/tet-drcAB + ATc (100 ng/mL, induced)", "result": 64, "unit": "µg/mL"}, {"measurement": "DAP MIC", "setting": "S. aureus RN4220; S. aureus RN4220_drcRS/drcAB (entire drc locus, native drcRS control, plasmid)", "result": 64, "unit": "µg/mL"}, {"measurement": "DAP MIC", "setting": "S. aureus RN4220; S. aureus RN4220_empty vector control", "result": 1, "unit": "µg/mL"}, {"measurement": "DAP MIC", "setting": "B. subtilis 168; B. subtilis 168_Pxyl/tet-drcAB + ATc (induced), MH + 50 µg/mL CaCl2, 24 h 30 °C, three biological replicates", "result": 16, "unit": "µg/mL"}, {"measurement": "DAP MIC", "setting": "B. subtilis 168; B. subtilis 168_drcRS/drcAB (entire drc locus on plasmid), MH + 50 µg/mL CaCl2, 24 h 30 °C, three biological replicates", "result": "> 256", "unit": "µg/mL"}, {"measurement": "DAP MIC", "setting": "B. subtilis 168; B. subtilis 168 as worded in the text, before induction of drcAB expression", "result": 2, "unit": "µg/mL"}]}]}
